Source: US9120770B2, “Substituted pyridine and pyrazine compounds as PDE4 inhibitors” (DART NEUROSCIENCE (CAYMAN) LTD., priority 2013, dated 2015)

These compounds were tested against PDE4D3 (Homo sapiens, UniProt Q08499).
PDE4D3, sequence (Q08499 1-673 isoform Q08499-2): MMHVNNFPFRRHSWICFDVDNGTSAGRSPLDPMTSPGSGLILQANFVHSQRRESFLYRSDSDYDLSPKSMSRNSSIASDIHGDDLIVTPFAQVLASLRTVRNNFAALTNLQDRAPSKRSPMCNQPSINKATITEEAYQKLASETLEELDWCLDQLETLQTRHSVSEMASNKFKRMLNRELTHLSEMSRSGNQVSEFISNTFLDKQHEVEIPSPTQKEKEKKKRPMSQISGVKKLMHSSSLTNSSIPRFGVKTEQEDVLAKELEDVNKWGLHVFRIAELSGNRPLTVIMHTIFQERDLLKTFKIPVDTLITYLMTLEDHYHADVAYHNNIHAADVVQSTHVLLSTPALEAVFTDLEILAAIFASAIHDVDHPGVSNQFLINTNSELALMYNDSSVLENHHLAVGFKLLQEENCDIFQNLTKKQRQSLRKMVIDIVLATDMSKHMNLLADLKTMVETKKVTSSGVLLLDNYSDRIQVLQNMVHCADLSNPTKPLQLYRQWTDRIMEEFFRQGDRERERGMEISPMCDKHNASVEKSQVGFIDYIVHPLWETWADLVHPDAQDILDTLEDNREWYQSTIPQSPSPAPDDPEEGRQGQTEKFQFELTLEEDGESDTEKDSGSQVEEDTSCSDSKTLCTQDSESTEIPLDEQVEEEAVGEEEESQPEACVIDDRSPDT

| EC50 [nM] | Compound |
| --- | --- |
| 100 to 1000 | COc1ncc(Cc2ccc(C(N)=O)nc2)cc1-c1cccc(Cl)c1 [Example 116, 5-{[5-(3-Chlorophenyl)-6-methoxypyridin-3-yl]methyl}pyridine-2-carboxamide] |
| 100 to 1000 | NC(=O)c1ncc(Cc2cnc(OC(F)F)c(-c3cccc(Cl)c3)c2)cn1 [Example 117, 5-{[5-(3-Chlorophenyl)-6-(difluoromethoxy)pyridin-3-yl]methyl}pyrimidine-2-carboxamide] |
| 100 to 1000 | COc1ncc(Cc2cnc(C(N)=O)nc2)cc1-c1cccc(F)c1 [Example 118, 5-{[5-(3-Fluorophenyl)-6-methoxypyridin-3-yl]methyl}pyrimidine-2-carboxamide] |
| < 100 | CCOc1ncc(Cc2cnc(C(N)=O)nc2)cc1-c1cccc(OC(F)F)c1 [Example 119, 5-({5-[3-(Difluoromethoxy)phenyl]-6-ethoxypyridin-3-yl}methyl)pyrimidine-2-carboxamide] |
| 100 to 1000 | COc1ncc(Cc2cnc(C(N)=O)nc2)cc1-c1ccnc(OC(F)F)c1 [Example 120, 5-({5-[2-(Difluoromethoxy)pyridin-4-yl]-6-methoxypyridin-3-yl}methyl)pyrimidine-2-carboxamide] |
| 100 to 1000 | COc1ncc(Cc2cnc(C(N)=O)nc2)cc1-c1cccc(OC(F)F)c1 [Example 121, 5-({5-[3-(Difluoromethoxy)phenyl]-6-methoxypyridin-3-yl}methyl)pyrimidine-2-carboxamide] |
| < 100 | CCOc1ncc(Cc2cnc(C(N)=O)nc2)cc1-c1ccnc(OC(F)F)c1 [Example 122, 5-({5-[2-(Difluoromethoxy)pyridin-4-yl]-6-ethoxypyridin-3-yl}methyl)pyrimidine-2-carboxamide] |
| < 100 | COc1ncc(Cc2cnc(C(N)=O)nc2)nc1-c1cccc(Cl)c1 [Example 123, 5-{[6-(3-Chlorophenyl)-5-methoxypyrazin-2-yl]methyl}pyrimidine-2-carboxamide] |
| < 100 | CCOc1ncc(Cc2ccc(C(N)=O)nc2)nc1-c1cccc(OC(F)F)c1 [Example 124, 5-({6-[3-(Difluoromethoxy)phenyl]-5-ethoxypyrazin-2-yl}methyl)pyridine-2-carboxamide] |
| < 100 | COc1ncc(Cc2cnc(C(N)=O)nc2)nc1-c1cccc(OC(F)F)c1 [Example 125, 5-({6-[3-(Difluoromethoxy)phenyl]-5-methoxypyrazin-2-yl}methyl)pyrimidine-2-carboxamide] |
| < 100 | CCOc1ncc(Cc2cnc(C(N)=O)nc2)nc1-c1cccc(Cl)c1 [Example 126, 5-{[6-(3-Chlorophenyl)-5-ethoxypyrazin-2-yl]methyl}pyrimidine-2-carboxamide] |
| 1000 to 10000 | COC(=O)c1ncn(Cc2cnc(OC)c(-c3cccc(Cl)c3)n2)n1 [Example 127, Methyl 1-{[6-(3-chlorophenyl)-5-methoxypyrazin-2-yl]methyl}-1H-1,2,4-triazole-3-carboxylate] |
| 100 to 1000 | FC(F)Oc1ncc(Cn2cnc(C3CC3)n2)cc1-c1cccc(Cl)c1 [Example 128, 3-(3-Chlorophenyl)-5-[(3-cyclopropyl-1H-1,2,4-triazol-1-yl)methyl]-2-(difluoromethoxy)pyridine] |
| 100 to 1000 | COc1ncc(Cn2cncn2)cc1-c1cccc(F)c1 [Example 129, 3-(3-Fluorophenyl)-2-methoxy-5-(1H-1,2,4-triazol-1-ylmethyl)pyridine] |
| 100 to 1000 | COc1ncc(Cn2cncn2)nc1-c1cccc(Cl)c1 [Example 130, 3-(3-Chlorophenyl)-2-methoxy-5-(1H-1,2,4-triazol-1-ylmethyl)pyrazine] |
| < 100 | FC(F)Oc1ncc(Cn2cncn2)cc1-c1cccc(Cl)c1 [Example 131, 3-(3-Chlorophenyl)-2-(difluoromethoxy)-5-(1H-1,2,4-triazol-1-ylmethyl)pyridine] |
| 100 to 1000 | COc1ncc(Cn2cnc(C)n2)nc1-c1cccc(Cl)c1 [Example 132, 3-(3-Chlorophenyl)-2-methoxy-5-[(3-methyl-1H-1,2,4-triazol-1-yl)methyl]pyrazine] |
| 1000 to 10000 | COc1ncc(Cn2cnc(C3CC3)n2)nc1-c1cccc(Cl)c1 [Example 133, 3-(3-Chlorophenyl)-5-[(3-cyclopropyl-1H-1,2,4-triazol-1-yl)methyl]-2-methoxypyrazine] |
| < 100 | COc1ncc(Cn2cncn2)cc1-c1cccc(Cl)c1 [Example 134, 3-(3-Chlorophenyl)-2-methoxy-5-(1H-1,2,4-triazol-1-ylmethyl)pyridine] |
| 1000 to 10000 | CC(C)Oc1ncc(Cn2cncn2)cc1-c1cccc(Cl)c1 [Example 135, 3-(3-Chlorophenyl)-2-(propan-2-yloxy)-5-(1H-1,2,4-triazol-1-ylmethyl)pyridine] |
| 100 to 1000 | COc1ncc(Cn2cncn2)cc1-c1cccc(C#N)c1 [Example 136, 3-[2-Methoxy-5-(1H-1,2,4-triazol-1-ylmethyl)pyridin-3-yl]benzonitrile] |
| 100 to 1000 | COc1ncc(Cn2cncn2)cc1-c1cccc(OC(F)(F)F)c1 [Example 137, 2-Methoxy-5-(1H-1,2,4-triazol-1-ylmethyl)-3-[3-(trifluoromethoxy)phenyl]pyridine] |
| 1000 to 10000 | COc1ncc(Cn2cnnc2C)cc1-c1cccc(Cl)c1 [Example 138, 3-(3-Chlorophenyl)-2-methoxy-5-[(3-methyl-4H-1,2,4-triazol-4-yl)methyl]pyridine] |
| 100 to 1000 | COc1ncc(Cn2cncn2)cc1-c1cc(F)cc(F)c1 [Example 139, 3-(3,5-Difluorophenyl)-2-methoxy-5-(1H-1,2,4-triazol-1-ylmethyl)pyridine] |
| > 10000 | COC(=O)c1ncnn1Cc1cnc(OC)c(-c2cccc(Cl)c2)c1 [Example 140, Methyl 1-{[5-(3-chlorophenyl)-6-methoxypyridin-3-yl]methyl}-1H-1,2,4-triazole-5-carboxylate] |
| 100 to 1000 | COC(=O)c1ncn(Cc2cnc(OC)c(-c3cccc(Cl)c3)c2)n1 [Example 141, Methyl 1-{[5-(3-chlorophenyl)-6-methoxypyridin-3-yl]methyl}-1H-1,2,4-triazole-3-carboxylate] |

Further lines, the compound ahead of its results:

| Compound | EC50 [nM] |
| --- | --- |
| COc1ncc(Cc2c(C)noc2C)nc1-c1cccc(Cl)c1 [Example 98, 3-(3-Chlorophenyl)-5-[(dimethyl-1,2-oxazol-4-yl)methyl]-2-methoxypyrazine] | 1000 to 10000 |
| Cc1noc(C)c1Cc1cnc(OC(F)F)c(-c2cccc(Cl)c2)c1 [Example 99, 3-(3-Chlorophenyl)-2-(difluoromethoxy)-5-[(dimethyl-1,2-oxazol-4-yl)methyl]pyridine] | 1000 to 10000 |
| COC(=O)Cc1ccc(Cc2cnc(OC(F)F)c(-c3cccc(Cl)c3)c2)cc1 [Example 100, Methyl 2-(4-{[5-(3-chlorophenyl)-6-(difluoromethoxy)pyridin-3-yl]methyl}phenyl)acetate] | < 100 |
| CCOC(=O)C1(c2ccc(Cc3cnc(OC(F)F)c(-c4cccc(Cl)c4)c3)cc2)CC1 [Example 101, Ethyl 1-(4-{[5-(3-chlorophenyl)-6-(difluoromethoxy)pyridin-3-yl]methyl}phenyl)cyclopropane-1-carboxylate] | 1000 to 10000 |
| FC(F)Oc1ncc(Cc2ccc(OCC3CC3)nc2)cc1-c1cccc(Cl)c1 [Example 102, 3-(3-Chlorophenyl)-5-{[6-(cyclopropylmethoxy)pyridin-3-yl]methyl}-2-(difluoromethoxy)pyridine] | 100 to 1000 |
| CCOc1ncc(Cc2ccc(C#N)nc2)nc1-c1cccc(OC(F)F)c1 [Example 103, 5-({6-[3-(Difluoromethoxy)phenyl]-5-ethoxypyrazin-2-yl}methyl)pyridine-2-carbonitrile] | < 100 |
| CCOc1ncc(Cc2cnc(N)nc2)nc1-c1cccc(OC(F)F)c1 [Example 104, 5-({6-[3-(Difluoromethoxy)phenyl]-5-ethoxypyrazin-2-yl}methyl)pyrimidin-2-amine] | < 100 |
| CCOc1ncc(Cc2cnc(N)nc2)nc1-c1cccc(Cl)c1 [Example 105, 5-{[6-(3-Chlorophenyl)-5-ethoxypyrazin-2-yl]methyl}pyrimidin-2-amine] | < 100 |
| COc1ncc(Cc2cnc(N)nc2)nc1-c1cccc(OC(F)F)c1 [Example 106, 5-({6-[3-(Difluoromethoxy)phenyl]-5-methoxypyrazin-2-yl}methyl)pyrimidin-2-amine] | < 100 |
| COc1ncc(Cc2cnc(C#N)nc2)nc1-c1cccc(OC(F)F)c1 [Example 107, 5-({6-[3-(Difluoromethoxy)phenyl]-5-methoxypyrazin-2-yl}methyl)pyrimidine-2-carbonitrile] | < 100 |
| CCOc1ncc(Cc2cnc(C#N)nc2)nc1-c1cccc(Cl)c1 [Example 108, 5-{[6-(3-Chlorophenyl)-5-ethoxypyrazin-2-yl]methyl}pyrimidine-2-carbonitrile] | 100 to 1000 |
| FC(F)Oc1ncc(Cc2ccccn2)cc1-c1cccc(Cl)c1 [Example 109, 3-(3-Chlorophenyl)-2-(difluoromethoxy)-5-(pyridin-2-ylmethyl)pyridine] | 100 to 1000 |
| FC(F)Oc1ncc(Cc2cnccn2)cc1-c1cccc(Cl)c1 [Example 110, 2-{[5-(3-Chlorophenyl)-6-(difluoromethoxy)pyridin-3-yl]methyl}pyrazine] | < 100 |
| Nc1ccc(Cc2cnc(OC(F)F)c(-c3cccc(Cl)c3)c2)nn1 [Example 111, 6-{[5-(3-Chlorophenyl)-6-(difluoromethoxy)pyridin-3-yl]methyl}pyridazin-3-amine] | 100 to 1000 |
| COc1nc(C)c(Cn2cncn2)cc1-c1cccc(Cl)c1 [Example 112, 3-(3-Chlorophenyl)-2-methoxy-6-methyl-5-(1H-1,2,4-triazol-1-ylmethyl)pyridine] | 100 to 1000 |
| COc1ncc(Cc2ccc(C(N)=O)cc2)nc1-c1cccc(Cl)c1 [Example 113, 4-{[6-(3-Chlorophenyl)-5-methoxypyrazin-2-yl]methyl}benzamide] | 100 to 1000 |
| NC(=O)c1ccc(Cc2cnc(OC(F)F)c(-c3cccc(Cl)c3)c2)cn1 [Example 114, 5-{[5-(3-Chlorophenyl)-6-(difluoromethoxy)pyridin-3-yl]methyl}pyridine-2-carboxamide] | 100 to 1000 |
| COc1cccc(-c2cc(Cc3cnc(C(N)=O)nc3)cnc2OC(F)F)c1 [Example 115, 5-{[6-(Difluoromethoxy)-5-(3-methoxyphenyl)pyridin-3-yl]methyl}pyrimidine-2-carboxamide] | 100 to 1000 |
